Data on two molecules can be found in publication PMC4154947, “Polyisoprenylated methylated protein methyl esterase as a putative drug target for androgen-insensitive prostate cancer” (ecancermedicalscience, 2014).

The IC50 is the midpoint of a concentration-inhibition curve. A higher IC50 goes with weaker potency.

The target of experiment [1] is T1, Polyisoprenylated methylated protein methyl esterase (PMPMEase; human carboxylesterase 1, hCE1) (Homo sapiens, UniProt P23141).
T1 construct: gene CES1
T1 sequence (P23141 18-567): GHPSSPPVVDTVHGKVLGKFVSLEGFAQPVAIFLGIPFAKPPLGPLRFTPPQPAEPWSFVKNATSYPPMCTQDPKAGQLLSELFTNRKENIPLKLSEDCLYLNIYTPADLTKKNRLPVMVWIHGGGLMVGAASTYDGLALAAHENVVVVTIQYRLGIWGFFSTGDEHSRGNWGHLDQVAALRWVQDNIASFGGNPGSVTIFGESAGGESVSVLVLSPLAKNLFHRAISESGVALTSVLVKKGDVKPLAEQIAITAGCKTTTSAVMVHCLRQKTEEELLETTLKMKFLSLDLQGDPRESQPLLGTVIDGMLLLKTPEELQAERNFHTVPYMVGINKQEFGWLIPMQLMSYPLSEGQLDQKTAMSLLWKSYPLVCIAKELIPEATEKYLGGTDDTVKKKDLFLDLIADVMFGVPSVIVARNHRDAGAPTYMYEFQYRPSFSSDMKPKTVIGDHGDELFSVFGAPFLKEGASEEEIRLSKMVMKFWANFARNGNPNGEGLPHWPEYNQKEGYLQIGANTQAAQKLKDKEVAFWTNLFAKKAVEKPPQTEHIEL
The experiment can be described thus: HPLC assay of RD-PNB hydrolysis in prostate cancer cell lysates (PC-3 value). In kind it is biochemical.

The target of experiment [2] is T1, Polyisoprenylated methylated protein methyl esterase (PMPMEase; human carboxylesterase 1, hCE1). Kind of experiment: HPLC-UV detection of substrate hydrolysis by prostate cell lysates. In kind it is cell-based.

The molecule `CC(C)=CCC/C(C)=C/CC/C(C)=C/CSCCS(=O)(=O)F` [L-28, 2-trans, trans-farnesylthioethanesulfonyl fluoride] registered an IC50 in experiment [1] of 3 µM. This counts as single-digit micromolar.

`COC(=O)[C@H](CSC/C=C(\C)CC/C=C(\C)CCC=C(C)C)NC(=O)c1ccc([N+](=O)[O-])cc1` [RD-PNB, N-(4-nitrobenzoyl)-S-trans, trans-farnesyl-L-cysteine methyl ester]: in experiment [2], the “HPLC-UV detection of substrate hydrolysis by prostate cell lysates” value is “Incubation of the specific PMPMEase substrate, RD-PNB, with lysates from the respective cell lines resulted in the hydrolysis”.
